Measured values from patent publication US7012068B2, “Co-administration of a polysaccharide with a chemotherapeutic agent for the treatment of cancer” (Pro-Pharmaceuticals, Inc., priority 2001, dated 2006).
“And” between values parts separate entries of the source, which are not always exact repeats. Identical values can stand only once. Like-named read-outs stand apart in the source and are kept apart here.

What was measured:
Albino Swiss mice [1] = conditions: 17 days
[2] = tested on: COLO 205 human colon tumor; conditions: for Animals died, Total: over 8 weeks (incl. sacrificed); for Mean survival time: parametric models and stratified Kaplan-Meier estimation
mice = conditions: cited from earlier work
Albino Swiss mice [3] = conditions: single i.v. LD50 dose of Adriamycin with or without galactomannan, 14 days
Procedure: Acute systemic toxicity of the anti-tumor drug adriamycin in the presence and absence of mannan was evaluated in Albino Swiss mice. Mice were bred as described Example 1. Experimental procedures followed approved governmental guidelines as described in Example 1.
A single dose intravenous injection of the adriamycin alone or adriamycin together with galactomannan preparations was provided via the tail vein at a dose of 0.5 mL/mouse at the doses described below in (1)-(3) and observed for clinical signs immediately after injection, and daily for the duration of the study.
There were a total of 3 groups of 5 animals each. The groups were as follows: 1) 0.9% NaCl only, 2) Adriamycin only (1.1 mg/mL) and Adriamycin (1.1 mg/mL)+galactomannan (7.2mg/mL).
0.9% NaCl was used as a diluent. Animals were weighed prior to injection and at the end of the observation period. Animals surviving at the end of the study were sacrificed by carbon dioxide inhalation.
The ability of galactomannan to reduce the toxicity of LD50 dosed of Adriamycin was measured by presence or absence of mortality in animals injected with the combination of Adriamycin and the particular polysaccharide.

[4] = 1 week after treatment initiation, q4d × 3, 5-FU 75 mg/kg, GM 120 mg/kg
[5] = 1 week after treatment initiation, q4d × 3, 5-FU 75 mg/kg, GM 120 mg/kg, 10 mice per group
[6] = 2 weeks after treatment initiation, q4d × 3, 5-FU 75 mg/kg, GM 120 mg/kg
[7] = 2 weeks after treatment initiation, q4d × 3, 5-FU 75 mg/kg, GM 120 mg/kg, 10 mice per group
[8] = 3 weeks after treatment initiation, q4d × 3, 5-FU 75 mg/kg, GM 120 mg/kg
[9] = 3 weeks after treatment initiation, q4d × 3, 5-FU 75 mg/kg, GM 120 mg/kg, 10 mice per group
[10] = 4 weeks (28 days) after treatment initiation, q4d × 3, 5-FU 75 mg/kg, GM 120 mg/kg
[11] = 4 weeks after treatment initiation, q4d × 3, 5-FU 75 mg/kg, GM 120 mg/kg, 10 mice per group
[12] = 5 weeks (35 days) after treatment initiation, q4d × 3, 5-FU 75 mg/kg, GM 120 mg/kg
[13] = 5 weeks after treatment initiation, q4d × 3, 5-FU 75 mg/kg, GM 120 mg/kg, 10 mice per group
[14] = 6 weeks after treatment initiation (incl. sacrificed), q4d × 3, 5-FU 75 mg/kg, GM 120 mg/kg, 10 mice per group
[15] = 6 weeks after treatment initiation, q4d × 3, 5-FU 75 mg/kg, GM 120 mg/kg
[16] = 7 weeks after treatment initiation (incl. sacrificed), q4d × 3, 5-FU 75 mg/kg, GM 120 mg/kg, 10 mice per group
[17] = 7 weeks after treatment initiation, q4d × 3, 5-FU 75 mg/kg, GM 120 mg/kg
[18] = 8 weeks after treatment initiation (incl. sacrificed), q4d × 3, 5-FU 75 mg/kg, GM 120 mg/kg, 10 mice per group
[19] = Day 0 after treatment initiation, q4d × 3, 5-FU 75 mg/kg, GM 120 mg/kg
[20] = Day 3 after treatment initiation, q4d × 3, 5-FU 75 mg/kg, GM 120 mg/kg
[21] = i.v. q4d × 3, 5-FU 75 mg/kg, GM 120 mg/kg
[22] = i.v. q4d × 3, 5-FU 75 mg/kg, GM 120 mg/kg, 10 mice per group
[23] = q4d × 3, 5-FU 75 mg/kg, GM 120 mg/kg, 10 mice per group
[24] = q4d × 3, 5-FU 75 mg/kg, GM 120 mg/kg
[25] = GM 60 mg/kg q1d × 5, 10 mice per group

O=c1[nH]cc(F)c(=O)[nH]1 [5-FU, 5-fluorouracil, reference compound]
death rate (mice dying / mice in group) (Albino Swiss mice [1]; single i.v. 5-FU 420 mg/kg with or without galactomannan): 3/5
Median tumor weight [2, 4]: 198 mg
Animals died [2, 5]: 1
Median tumor weight [2, 6]: 245 mg
Animals died [2, 7]: 2
Median tumor weight [2, 8]: 352 mg
Animals died [2, 9]: 0
Median tumor weight [2, 10]: 527 mg
Animals died [2, 11]: 0
deaths out of ten mice within 10 days after the treatment initiation ([2]; 5-FU 375 mg/kg/dose q4d×3, alone or with galactomannan 120 mg/kg/dose): nine
Median tumor weight [2, 12]: 990 mg
Animals died [2, 13]: 1
Animals died [2, 14]: 0
Median tumor weight [2, 15]: 1345 mg
Animals died [2, 16]: 0
Median tumor weight [2, 17]: 1881 mg
Animals died [2, 18]: 1
Median tumor weight [2, 19]: 101 mg
Median tumor weight [2, 20]: 135 mg
Median days to 2× doubling of tumor weight [2, 21]: 23.7 days
Animals with small tumors (20% and less) compared to median of untreated after 4-8 weeks of treatment [2, 22]: 1
treatment-related (nonspecific) deaths within two weeks ([2]; out of ten mice, q4d×3, 5-FU 75 mg/kg/dose, galactomannan 120 mg/kg/dose): three
Animals died, Total [2, 23]: 5
Mean survival time [2, 24]: 23.7 days
LD50 (mice; 5-FU, single dose in mice, Physician's Desk Reference 48th Edition): 340 mg/kg

COc1cccc2c1C(=O)c1c(O)c3c(c(O)c1C2=O)C[C@@](O)(C(=O)CO)C[C@@H]3O[C@H]1C[C@H](N)[C@H](O)[C@H](C)O1 [Adriamycin, doxorubicin]
mortality (mice died / mice in group) (Albino Swiss mice [3]): Three out of 5 and 3 out of 5
mortality (mice died / mice in group) (Albino Swiss mice [3]; listed as adriamycin): 3/5
LD50 (mice; Adriamycin, i.v. in mice, The Merck Index, 12th Edition): 21.1 mg/kg

galactomannan [GM]
Signs of Toxicity (summary of clinical observations) (Albino Swiss mice [1]; individual male mouse, single i.v. 0.5 mL/mouse: 5-FU 17 mg/mL, GM 4.73 mg/mL, 5-FU 17 mg/mL + GM 9.06 mg/mL): None
Median tumor weight ([2]; 1 week after treatment initiation, GM 60 mg/kg q1d × 5): 216 mg
Animals died ([2]; 1 week after treatment initiation, GM 60 mg/kg q1d × 5, 10 mice): 1
Median tumor weight [2, 4]: 258 mg
Animals died [2, 5]: 0
Median tumor weight ([2]; 2 weeks after treatment initiation, GM 60 mg/kg q1d × 5): 319 mg
Animals died ([2]; 2 weeks after treatment initiation, GM 60 mg/kg q1d × 5, 10 mice): 0
Median tumor weight [2, 6]: 320 mg
Animals died [2, 7]: 0
Median tumor weight ([2]; 3 weeks after treatment initiation, GM 60 mg/kg q1d × 5): 512 mg
Animals died ([2]; 3 weeks after treatment initiation, GM 60 mg/kg q1d × 5, 10 mice): 0
Median tumor weight [2, 8]: 629 mg
Animals died [2, 9]: 0
Median tumor weight [2, 10]: 959 mg
Median tumor weight ([2]; 4 weeks after treatment initiation, GM 60 mg/kg q1d × 5): 690 mg
Animals died ([2]; 4 weeks after treatment initiation, GM 60 mg/kg q1d × 5, 10 mice): 1
Animals died [2, 11]: 0
Median tumor weight [2, 12]: 1692 mg
Median tumor weight ([2]; 5 weeks after treatment initiation, GM 60 mg/kg q1d × 5): 1116 mg
Animals died ([2]; 5 weeks after treatment initiation, GM 60 mg/kg q1d × 5, 10 mice): 0
Animals died [2, 13]: 0
Animals died [2, 14]: 1
Median tumor weight ([2]; 6 weeks after treatment initiation, GM 60 mg/kg q1d × 5): 1421 mg
Animals died ([2]; 6 weeks after treatment initiation, GM 60 mg/kg q1d × 5, 10 mice): 0
Median tumor weight [2, 15]: 1690 mg
Animals died ([2]; 7 weeks after treatment initiation (incl. sacrificed), GM 60 mg/kg q1d × 5, 10 mice): 1
Animals died [2, 16]: 0
Median tumor weight ([2]; 7 weeks after treatment initiation, GM 60 mg/kg q1d × 5): 1152 mg
Median tumor weight [2, 17]: 1764 mg
Median tumor weight ([2]; 8 weeks (56 days) after treatment initiation, GM 60 mg/kg q1d × 5): 1152 mg
Median tumor weight ([2]; 8 weeks (56 days) after treatment initiation, q4d × 3, 5-FU 75 mg/kg, GM 120 mg/kg): 1813 mg
Animals died [2, 18]: 1
Animals died ([2]; 8 weeks after treatment initiation, GM 60 mg/kg q1d × 5, 10 mice): 0
Median tumor weight ([2]; Day 0 after treatment initiation, GM 60 mg/kg q1d × 5): 117 mg
Median tumor weight [2, 19]: 100 mg
Median tumor weight ([2]; Day 3 after treatment initiation, GM 60 mg/kg q1d × 5): 162 mg
Median tumor weight [2, 20]: 162 mg
Median days to 2× doubling of tumor weight ([2]; GM 60 mg/kg q1d × 5): 20.0 days
Animals with small tumors (20% and less) compared to median of untreated after 4-8 weeks of treatment [2, 25]: 0
Tumor complete regression after 56 days of treatment [2, 25]: 0
Median days to 2× doubling of tumor weight [2, 21]: 15.5 days
Animals with small tumors (20% and less) compared to median of untreated after 4-8 weeks of treatment [2, 22]: 1
Tumor complete regression after 56 days of treatment [2, 22]: 0
Animals died, Total ([2]; GM 60 mg/kg q1d × 5, 10 mice): 3
Animals died, Total [2, 23]: 2
Mean survival time ([2]; GM 60 mg/kg q1d × 5): 18.1 days
Mean survival time [2, 24]: 19.2 days
